According to patent US7820197B2, “Percutaneous preparations” (Astellas Pharma Inc., priority 2002, dated 2010):
Read-outs that look alike come from different tables or passages of the source. Values belong to the compound of their own block, whether it stands above or below them.

Experiments:
[1] = as compared to control; cited from earlier work
[2] = system: dihydrotachysterol-induced calcification (calciphylaxis); details: cited from earlier work
[3] = Percutaneous absorption test of 14C-incadronate aqueous solution; format: in vivo, rat; details: in 24 hours after the administration
Excerpt: The rat abdominal hair was shaved and a round cell (made of acryl, 20 mm in diameter) was fixed on the skin with a medical adhesive. […] During the test, the rat was fixed dorsally under urethane anesthesia. Bone tissue specimens were burnt in a tissue combustion equipment and the radioactivity was counted by a scintillation counter.

Solubility properties = format: physicochemical

Compound: CC(O)(P(=O)(O)O)P(=O)(O)O [etidronate]
enhancement of penetration effect by decyl methyl sulfoxide [1]: about 6 fold
skin calcium level ([2]; composition of etidronate and penetrating carrier containing decyl methyl sulfoxide): 2.026%
skin calcium level ([2]; etidronate alone dissolved in the penetrating carrier vehicle): 0.067%

Compound: O=P([O-])(O)C(NC1CCCCCC1)P(=O)([O-])O.[Na+].[Na+] [incadronate, disodium incadronate]
concentration in the bone tissues [3]: very high concentration in the bone tissues

solubility in an alkaline solvent (Solubility properties; alkaline solvent): soluble in an alkaline solvent
solubility in an organic solvent (Solubility properties; organic solvent): insoluble even in an organic solvent
solubility in water (Solubility properties; water): practically insoluble in water
Compound: O=P(O)(O)C(O)(Cc1cnc2ccccn12)P(=O)(O)O [minodronic acid, 1-hydroxy-2-(imidazo[1,2-a]pyridin-3-yl)ethylidenebisphosphonic acid]
